Values quoted from earlier work in patent US7550154B2, “Methods of treatment with drug loaded polymeric materials” (Yale University, priority 2004, dated 2009).

Structure (SMILES): COc1cccc2c1C(=O)c1c(O)c3c(c(O)c1C2=O)C[C@@](O)(C(=O)CO)C[C@@H]3O[C@H]1C[C@H](N)[C@H](O)[C@H](C)O1 [Dox, doxorubicin]
- solubility in aqueous environments: limited solubility
